Read-outs that look alike come from different tables or passages of the source.
Key:
[1] = system: transplanted liver cancer H22; details: oxaliplatin only, 10 mg/kg/w i.p.
Description: 6-8 weeks old, 18-22 g SPF grade BALB/c mice were subcutaneously inoculated with liver cancer H22 tumor cells (1×10^6 cells/mL, 0.2 ml/mouse) in the right forelimb axillary. 3 days after tumor inoculation, they were randomly divided into groups, with 28 mice in each group (fifty-fifty female and male mice), including normal saline control group, oxaliplatin only group, and PEG-mIFN-α4 combined with oxaliplatin group.
The administration was started on the day after grouping, once a week. PEG-mIFN-α4 was injected subcutaneously on the back of the neck, and oxaliplatin was injected intraperitoneally, in a dose of 10 mg/kg each time. The normal saline control group was administered an equal volume of normal saline.
All groups were subjected to survival curve analysis, and the median survival time was compared.

[2] = system: transplanted liver cancer H22; assay: Interferon combined with epirubicin, transplanted liver cancer H22 in mice (Example 10); assay type: in vivo, BALB/c mice; details: epirubicin only, 3.5 mg/kg/w i.p.
Text: The manufacturer of epirubicin was Beijing Union Pharmaceutical Factory.
Statistical tests were all two-sided tests.

[3] = system: transplanted liver cancer H22; details: paclitaxel only, 10 mg/kg/w
Description: In this example, BALB/c mice were purchased from Beijing Vital River Laboratory Animal Technology Co., Ltd., and the H22 mouse liver cancer cell line was purchased from the China Center for Type Culture Collection (CCTCC). The manufacturer of paclitaxel was Qilu Pharmaceutical (Hainan) Co., Ltd.
6-8 weeks old, 18-22 g SPF grade BALB/c mice were subcutaneously inoculated with liver cancer H22 tumor cells (1×10^6 cells/mL, 0.2 ml/mouse) in the right forelimb axillary. 3 days after tumor inoculation, they were randomly divided into groups, with 28 mice in each group (fifty-fifty female and male mice), including normal saline control group, paclitaxel only group, and PEG-mIFN-α4 combined with paclitaxel group.
The administration was started on the day after grouping, once a week. PEG-mIFN-α4 was injected subcutaneously on the back of the neck, in a dose of 1 mg/mouse each time, and oxaliplatin was injected intraperitoneally, in a dose of 10 mg/kg each time.
All groups were subjected to survival curve analysis, and the median survival time was compared. SAS 9.4 and office2010 software were used for statistical analysis. Statistical tests were all two-sided tests.

[4] = system: transplanted lung cancer LLC; assay: Interferon combined with gemcitabine, transplanted lung cancer LLC in mice (Example 6); assay type: in vivo, C57BL/6N mice; details: gemcitabine only, 60 mg/kg i.p. once a week, Day 64 post tumor inoculation, 60 mg/kg
Description: (§1) In this example, a comparative study on the efficacy of PEG-mIFN-α4 intermittent administration (once every 48 hours for four consecutive times, then drug withdrawal for 192 hours; for 5 rounds), PEG-mIFN-α4 continuous administration (once every 48 hours for 32 consecutive times), PEG-mIFN-α4 in combination with gemcitabine (PEG-mIFN-α4: once every 48 hours for four consecutive times, then drug withdrawal for 360 hours, 4 rounds; gemcitabine: once a week) on transplanted liver cancer LLC in mice was performed.
(§2) On the day when the tumor was inoculated, they were randomly divided into PEG-mIFN-α4 continuous administration group (N=26, female 13, male 13), PEG-mIFN-α4 intermittent administration group (N=26, female 13, male 13), the normal saline control group (N=26, female 13, male 13), the gemcitabine only group (N=26, female 13, male 13), and PEG-mIFN-α4 combined with gemcitabine group (N=26, female 13, male 13).
For the PEG-mIFN-α4 intermittent administration group, PEG-mIFN-α4 was administered once every 48 hours for 4 consecutive times, then drug withdrawal for 192 hours; for […]. For the PEG-mIFN-α4 continuous administration group, PEG-mIFN-α4 was administered once every 48 hours. For the PEG-mIFN-α4 combined with gemcitabine group, PEG-mIFN-α4 was administered once every 48 hours for 4 consecutive times, then drug withdrawal for 360 hours; for 4 rounds; and gemcitabine was administered once a week. For the gemcitabine only group, gemcitabine was administered once a week. For the saline control group, equal volume of saline was administered. Gemcitabine was injected intraperitoneally, 60 mg/kg.
(§3) SAS9.4 software was used for comparing the difference in mortality, and the statistical tests were all two-sided tests.

[5] = system: transplanted colorectal cancer CT26; assay: Interferon combined with gemcitabine, transplanted colorectal cancer CT26 in mice (Example 7); assay type: in vivo, BALB/c mice; details: gemcitabine only, 60 mg/kg i.p. once a week, 110 days observation, 60 mg/kg
Description: In this example, a comparative study on the efficacy of PEG-mIFN-α4 intermittent administration (once every 48 hours for three consecutive times, then drug withdrawal for 144 hours; for 11 rounds), PEG-mIFN-α4 continuous administration (once every 48 hours for 55 consecutive times), PEG-mIFN-α4 in combination with gemcitabine (PEG-mIFN-α4: once every 48 hours for three consecutive times, then drug withdrawal for 240 hours, 8 rounds; gemcitabine: once a week) on transplanted colorectal cancer CT26 in mice was performed.
The anticancer agent is Gemcitabine (Jiangsu HAOSEN Pharmaceutical).
as §2, with “(N=24,” for “(N=26,”, “12,” for “13,”, “12),” for “13),”, “12).” for “13).”
Gemcitabine was injected intraperitoneally, 60 mg/kg. […] For the PEG-mIFN-α4 intermittent administration group, PEG-mIFN-α4 was administered once every 48 hours for three consecutive times, then drug withdrawal for 144 hours; for 11 rounds. For the PEG-mIFN-α4 continuous administration group, PEG-mIFN-α4 was administered once every 48 hours. For the PEG-mIFN-α4 combined with gemcitabine group, PEG-mIFN-α4 was administered once every 48 hours for three consecutive times, then drug withdrawal for 240 hours; for 8 rounds; and gemcitabine was administered once a week. For the gemcitabine only group, gemcitabine was administered once a week. For the saline control group, equal volume of saline was administered.
(§4) Survival analysis was performed for all groups to compare the differences between groups.

[6] = system: transplanted liver cancer H22; assay: Interferon combined with gemcitabine, transplanted liver cancer H22 in mice (Example 5); assay type: in vivo, BALB/c mice; details: gemcitabine only, 60 mg/kg i.p. once a week, 108 days observation
Description: In this example, a comparative study on the efficacy of PEG-mIFN-α4 intermittent administration (once every 48 hours for three consecutive times, then drug withdrawal for 144 hours; for 8 rounds), PEG-mIFN-α4 continuous administration (once every 48 hours for 42 consecutive times), PEG-mIFN-α4 in combination with gemcitabine (PEG-mIFN-α4: once every 48 hours for three consecutive times, then drug withdrawal for 240 hours, 6 rounds; gemcitabine: once a week) on H22 transplanted liver cancer in mice was performed.
as §2, with “(N=24,” for “(N=26,”, “12,” for “13,”, “12),” for “13),”, “12).” for “13).”
Gemcitabine was injected intraperitoneally, 60 mg/kg.
For the PEG-mIFN-α4 intermittent administration group, PEG-mIFN-α4 was administered once every 48 hours for three consecutive times, then drug withdrawal for 144 hours; for 8 rounds. For the PEG-mIFN-α4 continuous administration group, PEG-mIFN-α4 was administered once every 48 hours. For the PEG-mIFN-α4 combined with gemcitabine group, PEG-mIFN-α4 was administered once every 48 hours for three consecutive times, then drug withdrawal for 240 hours; for 6 rounds; and gemcitabine was administered once a week. For the gemcitabine only group, gemcitabine was administered once a week. For the saline control group, equal volume of saline was administered.
as §4

[7] = system: transplanted melanoma B16; assay: Interferon combined with gemcitabine, transplanted melanoma B16 in mice (Example 8); assay type: in vivo, C57BL/6N mice; details: gemcitabine only, 60 mg/kg i.p. once a week, 48 days after tumor inoculation, 60 mg/kg
Description: as §1, with “3” for “four”, “240” for “192”, “4” for “5”, “24” for “32”, “240” for “360”, “melanoma B16” for “liver cancer LLC”
as §2, with “(N=28,” for “(N=26,”, “14,” for “13,”, “14),” for “13),”, “14).” for “13).”
For the PEG-mIFN-α4 intermittent administration group, PEG-mIFN-α4 was administered once every 48 hours for 3 consecutive times, then drug withdrawal for 240 hours; for 4 rounds. For the PEG-mIFN-α4 continuous administration group, PEG-mIFN-α4 was administered once every 48 hours. For the PEG-mIFN-α4 combined with gemcitabine group, PEG-mIFN-α4 was administered once every 48 hours for 3 consecutive times, then drug withdrawal for 240 hours; for 4 rounds; and gemcitabine was administered once a week. For the gemcitabine only group, gemcitabine was administered once a week. For the saline control group, equal volume of saline was administered. Gemcitabine was injected intraperitoneally, 60 mg/kg.
as §3

[8] = system: transplanted breast cancer 4T1; assay: Interferon combined with gemcitabine, transplanted breast cancer 4T1 in mice (Example 9); assay type: in vivo, BALB/c mice; details: gemcitabine only, 60 mg/kg i.p. once a week, 53 days after tumor inoculation, 60 mg/kg
Description: as §1, with “3” for “four”, “144” for “192”, “25” for “32”, “240” for “360”, “breast” for “liver”, “4T1” for “LLC”
as §2, with “(N=24,” for “(N=26,”, “12,” for “13,”, “12),” for “13),”, “12).” for “13).”
For the PEG-mIFN-α4 intermittent administration group, PEG-mIFN-α4 was administered once every 48 hours for 3 consecutive times, then drug withdrawal for 144 hours; for 5 rounds. For the PEG-mIFN-α4 continuous administration group, PEG-mIFN-α4 was administered once every 48 hours. For the PEG-mIFN-α4 combined with gemcitabine group, PEG-mIFN-α4 was administered once every 48 hours for 3 consecutive times, then drug withdrawal for 240 hours; for 4 rounds; and gemcitabine was administered once a week. For the gemcitabine only group, gemcitabine was administered once a week. For the saline control group, equal volume of saline was administered. Gemcitabine was injected intraperitoneally, 60 mg/kg.
as §3

[9] = system: mouse fibroblast/encephalomyocarditis virus (L929/EMCV); assay: Specific activity by mouse fibroblast/encephalomyocarditis virus (L929/EMCV) cytopathic inhibition method; assay type: cell-based; details: stock solution; commercial mIFN-α4 (R&D) as the standard
Description: (§5) The bacterial endotoxin content of the deglycosylated mIFN-α4 stock solution was determined by the Limulus reagent method as lower than 60 EU/mg. specific activity was determined as 5.4×10^8 U/mg by using the commercial mIFN-α4 (R&D, catalog number 12115-1) as the standard, and by using the mouse fibroblast/encephalomyocarditis virus (L929/EMCV) cytopathic inhibition method.
as §5, with “PEG-mIFN-α4” for “deglycosylated mIFN-α4”, “15” for “60”, “Specific” for “specific”, “6.1×10^6” for “5.4×10^8”

Molecule: O=C1[O][Pt]2([NH][C@@H]3CCCC[C@H]3[NH]2)[O]C1=O [Oxaliplatin]
- Median survival period (Time after tumor inoculation, days) [1]: 12.5 days

Molecule: COc1cccc2c1C(=O)c1c(O)c3c(c(O)c1C2=O)C[C@@](O)(C(=O)CO)C[C@@H]3O[C@H]1C[C@H](N)[C@@H](O)[C@H](C)O1 [Epirubicin]
- Median survival period (Time after tumor inoculation, days) [2]: 15.0 days
- Median survival period (Time after tumor inoculation, days) ([2]; listed as epirubicin): 15 days

Molecule: CC(=O)O[C@H]1C(=O)[C@@]2(C)[C@H]([C@H](OC(=O)c3ccccc3)[C@]3(O)C[C@H](OC(=O)[C@H](O)[C@@H](NC(=O)c4ccccc4)c4ccccc4)C(C)=C1C3(C)C)[C@]1(OC(C)=O)CO[C@@H]1C[C@@H]2O [Paclitaxel]
- Median survival period (Time after tumor inoculation, days) [3]: 17.0 days
- Median survival period (Time after tumor inoculation, days) ([3]; listed as paclitaxel): 17 days

Molecule: Nc1ccn([C@@H]2O[C@H](CO)[C@@H](O)C2(F)F)c(=O)n1 [Gemcitabine, reference compound]
- Mortality [4]: 80.8%
- Mortality ([4]; listed as gemcitabine): 80.8%
- Mean survival period (days post tumor inoculation) [5]: 99.0 days
- Mean survival period (days post tumor inoculation) ([5]; listed as gemcitabine): 89.0 days
- Mean survival period (days post tumor inoculation) [6]: 58.5 days
- Mortality [7]: 89.3%
- Mortality ([7]; listed as gemcitabine): 89.3%
- Mortality [8]: 87.5%
- Mortality ([8]; listed as gemcitabine): 87.5%

B1: deglycosylated mIFN-α4: recombinant mouse interferon α4 (GenBank NP_034634) expressed in Pichia pastoris, glycosyl groups removed by glycosidase (protein, UniProt P07351 25-186, looked up)
Interferon alpha-4: CDLPHTYNLGNKRALTVLEEMRRLPPLSCLKDRKDFGFPLEKVDNQQIQKAQAILVLRDLTQQILNLFTSKDLSATWNATLLDSFCNDLHQQLNDLKACVMQEPPLTQEDSLLAVRTYFHRITVYLRKKKHSLCAWEVIRAEVWRALSSSTNLLARLSEEKE
modifications: deglycosylated
notes: recombinant mouse interferon α4 (GenBank NP_034634) expressed in Pichia pastoris, glycosyl groups removed by glycosidase
- Specific activity [9]: 5.4×10^8 U/mg

Reference: patent US20230270824A1, “INTERFERON-BASED CANCER TREATMENT METHOD AND PHARMACEUTICAL COMPOSITION” (XIAMEN AMOYTOP BIOTECH CO., LTD., priority 2019, published 2023)
